Assay results reported in patent US20260297105A1, “RAF-MEK PROTEIN COMPLEX MODULATORS AND METHODS OF USE THEREOF” (GANDEEVA THERAPEUTICS, INC., priority 2023, published 2026).
Where two headings read alike, the source gives them in different places.

Key:
MEK1 = target: T1, MEK1 (Homo sapiens, UniProt Q02750); assay: MEK1 kinase cascade assay (ADP-Glo), inhibition of MEK1 kinase activity; format: biochemical; details: 25 nM BRAF, 6.25 nM MEK1, 0.5 μM ERK, 1 mM ATP; 20 min preincubation, 1 hr at 25° C.; read-out: BRAF ADP Glo kinase assay V3 (IC50)
T1 construct: purchased SignalChem M02-14H
Description: (§1) Protein expression and purification: BRAF (445-723) with N-term His-tag and C-term StrepII tag was expressed using the Expi293 system (ThermoFisher) and purified using Strep-Tactin® XT-Superflow (IBA) chromatography. ERK1 (full-length) with N-term His-tag was expressed in Rosetta DE3 cells (Millipore) and purified using HisTrap HP (Cytiva) and Superdex 200 (Cytiva) column chromatography. Full-length MEK1 for TR-FRET assays with N-term His-tag was expressed in BL21DE3 cells (ThermoFisher) and purified using HisTrap HP (Cytiva) and Superdex 200 (Cytiva) column chromatography.
Efficacy of exemplary compounds in inhibition of MEK1 kinase activity: The effect of compound MEK1 inhibition was evaluated using an ADP detection system for kinases, such as the ADP-Glo assay (Promega). The MEK1 kinase cascade assay consisted of 9 μL reaction volumes in 384-well white, opaque Optiplates (PerkinElmer). Compounds were prepared from DMSO stocks in assay buffer (10 mM HEPES pH 7.5, 5 mM MgCl2, 2 mM CHAPS, and 1 mM DTT) and preincubated with 25 nM BRAF for 20 mins at 25° C. prior to addition of 6.25 nM MEK1/0.5 μM ERK/1 mM ATP premix to initiate the kinase reaction. Both BRAF and ERK1 were produced in-house, and MEK1 was purchased from SignalChem (M02-14H). DMSO was kept constant at a final concentration of 1%. After a 1 hr incubation at 25° C., conversion of ATP to ADP was detected using ADP-Glo™ reagents according to the manufacturer's protocol. Luminescence was measured using a CLARIOstar microplate reader (BMG). Percent (%) Inhibition was calculated by normalizing to DMSO control (max) and 1 μM Trametinib (min). % inhibition as a function of compound concentration from 2 replicate wells was fit with a 4-parameter logistic curve equation using GraphPad Prism or CDD Vault to derive IC50 values.
(§2) In this table, for the BRAF ADP Glo kinase assay, “A” indicates IC50 of less than 5 nM; “B” indicates IC50 of between 5 nM to 50 nM; and “C” indicates IC50 of between 50 nM to 500 nM. “D” indicates IC50 of greater than 500 nM. For the BRAF-MEK TR-FRET assay, “A” indicates EC50 of less than 50 nM; “B” indicates EC50 of between 50 nM to 200 nM; and “C” indicates EC50 of between 200 nM to 1 μM. “D′” indicates EC50 of greater than 1 μM. For the AlphaLisa P-ERK assay, “A” indicates IC50 of less than 1 nM; “B” indicates IC50 of between 1 nM to 10 nM; and “C” indicates IC50 of between 10 nM to 100 nM. “D” indicates IC50 of greater than 100 nM. For the cell viability assay, “A” indicates IC50 of less than 1 nM; “B” indicates IC50 of between 1 nM to 10 nM; and “C” indicates IC50 of between 10 nM to 100 nM. “D” indicates IC50 of greater than 100 nM.

BRAF-MEK1 = assay: BRAF-MEK TR-FRET assay, stabilization of MEK1 and BRAF interaction; format: binding; details: 4 nM BRAF, 10 nM MEK, 100 μM ATP, 1 hr at 25° C., read-out: BRAF-MEK TR-FRET Assay (EC50, fold stabilization)
Description: as §1
Efficacy of exemplary compounds in stabilization of MEK1 and BRAF interaction: Compound stabilization of BRAF-MEK interaction was evaluated using TR-FRET (Time Resolved Fluorescence Energy Transfer). The FRET assay consisted of His-tagged MEK1 (produced in-house), GST-tagged BRAF (SignalChem, B08-11G), Anti His-Tb Cryptate donor, and Anti GST-XL665 acceptor fluorophores (PerkinElmer) to generate FRET signal upon BRAF-MEK1 binding. Compounds were prepared from DMSO stocks in assay buffer (50 mM Tris pH 7.5, 150 mM NaCl, 1 mM DTT, 0.05% Tween-20, 5 mM MgCl2, and 100 μM ATP) and incubated with 4 nM BRAF and 10 nM MEK for 1 hr at 25° C. 1 ng Anti His-Tb Cryptate/20 ng Anti GST-XL665 premix was then added and incubated for 1 hr at 25° C. TR-FRET was measured using Cytation5 microplate reader (Agilent) using Ex/Em=340/620 nm and Ex/Em=340/665 nm to determine the FRET ratio. Fold stabilization was calculated as FRET signal of treated well/DMSO control. Fold stabilization as a function of compound concentration from 2 replicate wells was fit with a 4-parameter logistic curve equation using GraphPad Prism or CDD Vault to derive EC50 values.
as §2

T1 sequence (Q02750 whole entry): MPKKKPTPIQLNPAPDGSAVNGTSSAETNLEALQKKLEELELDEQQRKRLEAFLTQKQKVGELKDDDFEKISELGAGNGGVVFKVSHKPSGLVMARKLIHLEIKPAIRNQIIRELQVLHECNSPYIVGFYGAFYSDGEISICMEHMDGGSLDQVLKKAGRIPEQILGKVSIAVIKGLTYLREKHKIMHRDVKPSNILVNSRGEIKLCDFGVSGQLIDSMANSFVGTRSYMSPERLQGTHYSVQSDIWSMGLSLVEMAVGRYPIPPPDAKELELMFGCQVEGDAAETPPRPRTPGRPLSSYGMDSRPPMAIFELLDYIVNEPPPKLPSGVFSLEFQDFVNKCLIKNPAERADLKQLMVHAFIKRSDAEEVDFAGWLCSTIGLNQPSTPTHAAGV
T1 sequence (P15056 445-723 partner limits assumed): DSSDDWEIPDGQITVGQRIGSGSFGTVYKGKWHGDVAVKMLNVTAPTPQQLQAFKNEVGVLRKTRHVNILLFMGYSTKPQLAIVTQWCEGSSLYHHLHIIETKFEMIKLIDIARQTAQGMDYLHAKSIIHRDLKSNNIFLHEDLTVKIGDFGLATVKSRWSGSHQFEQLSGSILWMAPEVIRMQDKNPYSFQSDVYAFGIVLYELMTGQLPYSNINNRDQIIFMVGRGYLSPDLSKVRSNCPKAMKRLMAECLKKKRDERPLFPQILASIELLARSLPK

| SMILES | IC50 (MEK1) [nM] | EC50 (BRAF-MEK1) [nM] | EC50 (BRAF-MEK1; 60 min) [nM] |
| --- | --- | --- | --- |
| CNS(=O)(=O)Nc1cccc(CN2C(=O)Oc3cc(OC(=O)N(C)C)ccc3[C@H]2C)c1F [Compound 153, 3-(2-fluoro-3-((N-methylsulfamoyl)amino)benzyl)-4-methyl-2-oxo-3,4-dihydro-2H-benzo[e][1,3]oxazin-7-yl dimethylcarbamate] | 5 to 50 | 200 to 1000 |  |
| CNS(=O)(=O)Nc1cc(F)cc(CN2Cc3ccc(Oc4cccnn4)cc3OC2=O)c1F [Compound 200, 3-{[2,5-difluoro-3-(methylaminosulfonylamino)phenyl]methyl}-7-(3-pyridazinyloxy)-3,4-dihydro-2H-1,3-benzoxazin-2-one] | 5 to 50 | 200 to 1000 |  |
| CN(C)C(=O)Oc1ccc2c(c1)OC(=O)N(Cc1cccc(NS(=O)(=O)N3CC4(COC4)C3)c1F)C2 [Compound 109, 3-(2-fluoro-3-(2-oxa-6-azaspiro[3.3]heptane-6-sulfonamido)benzyl)-2-oxo-3,4-dihydro-2H-benzo[e][1,3]oxazin-7-yl dimethylcarbamate] | 5 to 50 | 200 to 1000 |  |
| CN(C)S(=O)(=O)Nc1nccc(CN2C(=O)Oc3cc(Oc4cccnn4)ccc3C23CCC3)c1F [Compound 181, 3-{[2-(dimethylaminosulfonylamino)-3-fluoro-4-pyridyl]methyl}-7-(3-pyridazinyloxy)-2H,3H-spiro[1,3-benzoxazine-4,1′-cyclobutan]-2-one] | 5 to 50 | 200 to 1000 |  |
| CNS(=O)(=O)Nc1nccc(CN2C(=O)Oc3cc(Oc4ncccn4)ccc3C23CCC3)c1F [Compound 160, 3-{[3-fluoro-2-(methylaminosulfonylamino)-4-pyridyl]methyl}-7-(2-pyrimidinyloxy)-2H,3H-spiro[1,3-benzoxazine-4,1′-cyclobutan]-2-one] |  | 200 to 1000 |  |
| CNS(=O)(=O)Nc1cccc(CN2Cc3cc(F)c(Oc4ncccn4)cc3OC2=O)c1F [Compound 83, 6-fluoro-3-{[2-fluoro-3-(methylaminosulfonylamino)phenyl]methyl}-7-(2-pyrimidinyloxy)-3,4-dihydro-2H-1,3-benzoxazin-2-one] | 5 to 50 | 200 to 1000 |  |
| CN(C)S(=O)(=O)Nc1cccc(CN2C(=O)Oc3cc(Oc4cccnn4)ccc3C2(C)C)c1F [Compound 34, 3-{[3-(dimethylaminosulfonylamino)-2-fluorophenyl]methyl}-4,4-dimethyl-7-(3-pyridazinyloxy)-3,4-dihydro-2H-1,3-benzoxazin-2-one] | < 5 | 200 to 1000 |  |
| CNS(=O)(=O)Nc1nccc(CN2C(=O)Oc3cc(Oc4cccnn4)cnc3[C@H]2C)c1F (stereo in doubt) [Compound 193, 3-{[3-fluoro-2-(methylaminosulfonylamino)-4 pyridyl]methyl}-4-methyl-7-(3-pyridazinyloxy)-3,4-dihydro-2H-1-oxa-3,5 diazanaphthalen-2-one] |  |  | < 50 |
| CNS(=O)(=O)Nc1cccc(CN2Cc3ccc(OC(=O)C4CC4)cc3OC2=O)c1F [Compound 147, 3-(2-fluoro-3-((N-methylsulfamoyl)amino)benzyl)-2-oxo-3,4-dihydro-2H-benzo[e][1,3]oxazin-7-yl cyclopropanecarboxylate] |  | 50 to 200 |  |
| O=C1Oc2cc(Oc3cccnn3)ccc2C2(CCC2)N1Cc1ccnc(NS(=O)(=O)C2CC2)c1F [Compound 163, (cyclopropylsulfonyl)[3-fluoro-4-({2-oxo-7-(3-pyridazinyloxy)-2H,3H-spiro[1,3-benzoxazine-4,1′-cyclobutan]-3-yl}methyl)-2-pyridyl]amine] |  | 200 to 1000 |  |
| CNS(=O)(=O)Nc1cccc(CN2Cc3cc(Cl)c(OC(=O)C4CC4)cc3OC2=O)c1F [Compound 130, 6-chloro-3-(2-fluoro-3-((N-methylsulfamoyl)amino)benzyl)-2-oxo-3,4-dihydro-2H-benzo[e][1,3]oxazin-7-yl cyclopropanecarboxylate] |  | 50 to 200 |  |
| CNS(=O)(=O)Nc1cccc(CN2Cc3cc(Cl)c(OC(=O)C(C)C)cc3OC2=O)c1F [Compound 129, 6-chloro-3-(2-fluoro-3-((N-methylsulfamoyl)amino)benzyl)-2-oxo-3,4-dihydro-2H-benzo[e][1,3]oxazin-7-yl isobutyrate] |  | 200 to 1000 |  |
| CNS(=O)(=O)Nc1nccc(CN2C(=O)Oc3cc(Oc4nccnn4)cnc3[C@@H]2C)c1F (stereo in doubt) [Compound 199, 3-{[3-fluoro-2-(methylaminosulfonylamino)-4-pyridyl]methyl}-4-methyl-7-(1,2,4-triazin-3-yloxy)-3,4-dihydro-2H-1-oxa-3,5-diazanaphthalen-2-one] |  |  | 50 to 200 |
| CNS(=O)(=O)Nc1cccc(CN2C(=O)Oc3c(ccc(Oc4ncccn4)c3F)[C@H]2C)c1F (single isomer, unassigned) [Compound 93, (R)-8-fluoro-3-({2-fluoro-3-(methylsulfamoyl)amino]phenyl}methyl)-4-methyl-7-(pyrimidin-2-yloxy)-3,4-dihydro-2H-1,3-benzoxazin-2-one or (S)-8-fluoro-3-({2-fluoro-3-(methylsulfamoyl)amino]phenyl}methyl)-4-methyl-7-(pyrimidin-2-yloxy)-3,4-dihydro-2H-1,3-benzoxazin-2-one] | 5 to 50 |  |  |
| C[C@@H]1c2c(F)cc(Oc3cccnn3)cc2OC(=O)N1Cc1cccc(NS(=O)(=O)C2CC2)c1F (single isomer, unassigned) [Compound 54] | 50 to 500 |  |  |
| CNS(=O)(=O)Nc1cccc(CN2Cc3cc(C)c(Oc4ncccn4)cc3OC2=O)c1F [Compound 111, 3-({2-fluoro-3-[(methylsulfamoyl)amino]phenyl}methyl)-6-methyl-7-(pyrimidin-2-yloxy)-3,4-dihydro-2H-1,3-benzoxazin-2-one] | 5 to 50 |  |  |
| CNS(=O)(=O)Nc1cccc(CN2C(=O)Oc3c(ccc(Oc4ncccn4)c3F)C23COC3)c1F [Compound 88] | > 500 |  |  |
| O=C1Oc2cc(Oc3ncco3)c(F)cc2C2(COC2)N1Cc1ccnc(NS(=O)(=O)C2CC2)c1F [Compound 172, N-(3-fluoro-4-((6-fluoro-7-(oxazol-2-yloxy)-2-oxospiro[benzo[e][1,3]oxazine-4,3′-oxetan]-3(2H)-yl)methyl)pyridin-2-yl)cyclopropanesulfonamide] | 50 to 500 |  |  |
| CNS(=O)(=O)Nc1cccc(CN2C(=O)Oc3cc(Oc4ncco4)cnc3[C@H]2C)c1F (stereo in doubt) [Compound 189, 3-{[2-fluoro-3-(methylaminosulfonylamino)phenyl]methyl}-4-methyl-7-(1,3-oxazol-2-yloxy)-3,4-dihydro-2H-1-oxa-3,5-diazanaphthalen-2-one] | 50 to 500 |  |  |
| CNS(=O)(=O)Nc1cccc(CN2Cc3ccc(Oc4ncccn4)cc3OC2=O)c1F [Compound 157, 3-({2-fluoro-3-[(methylsulfamoyl)amino]phenyl}methyl)-7-(pyrimidin-2-yloxy)-3,4-dihydro-2H-1,3-benzoxazin-2-one] | 5 to 50 |  |  |
